SMILES | logP
CCCCCCC(C)(C)c1cc(O)c2c(c1)OC(C)(C)[C@@H]1CC=C(CO)C[C@@H]21 | 7.44
O=Nc1ccc(O)c(=O)cc1 | 0.83
CCOC(=O)C=COc1ccccc1Cl | 3.55
Clc1ccc(OCc2cccc(CN3CCOCC3)c2)cc1 | 3.52
CCOC(=O)C=COc1ccccc1 | 3.18
CNC(=S)NCCSCc1cncn1C | 0.32
O=C(O)C=COc1ccccc1 | 2.27
O=C(O)c1ccc(Cl)cc1Nc1ccccc1 | 4.25
Cc1cn([C@H]2C[C@H](O)[C@@H](CO)O2)c(=O)[nH]c1=O | -0.93
COc1cc(Br)c(Cc2cnc(N)nc2N)cc1OC | 1.64
COC1CC(OC2CCC3(C=O)C4CCC5(C)C(C6=CC(=O)OC6)CCC5(O)C4CCC3(O)C2)OC(C)C1O (centres undefined) | 0.64
CCN1CC(C(O)C(CC2CCCCC2)NC(=O)C(Cc2cscn2)NC(=O)C(CC(=O)N2CCOCC2)c2ccccc2)OC1=O (centres undefined) | 2.83
O=C(c1ccc(F)cc1F)c1ccc2n1CCC2C(=O)O (centres undefined) | 2.59
CCCCc1ccc(N2C(N)=NC(N)=NC2(C)C)cc1 | 2.66
CC(=O)OCC1SC(n2ccnc2[N+](=O)[O-])C(OC(C)=O)C(OC(C)=O)C1OC(C)=O (centres undefined) | 0.63
OCc1cccc2ccccc12 | 2.37
Cc1cccc(C)c1NC(=O)CCN | 0.62
c1ccc(-c2ncn[nH]2)cc1 | 1.54
c1ccc(C2CCCN2)cc1 (centres undefined) | 1.89
C=C(C)C(=O)OC1CC2=CC(CC3(C)OC3C3OC(=O)C(=C)C13)OC2=O (centres undefined) | 0.69
C[C@H]1O[C@@H](O[C@H]2CC[C@@]3(C)[C@H](CC[C@@H]4[C@@H]3CC[C@]3(C)[C@@H](C5=CC(=O)OC5)[C@@H](O)C[C@]43O)C2)C[C@H](O)[C@@H]1O | 1.77
Cn1c([N+](=O)[O-])cnc1/C=C/c1ccnc(N)n1 | 0.85
C=C1C(=O)OC2C=C(C)C(OC(C)=O)CC(O)C(C)=CC(OC(=O)C(C)=CC)C12 (centres undefined) | 1.16

SMILES | logP
COC(=O)c1ccc(CN(C)N=O)cc1 | 1.21
CC(=O)c1nc([N+](=O)[O-])n(CC(C)O)c1C (centres undefined) | 0.37
C=C1C(=O)OC2C1C(OC(=O)C(C)=CC)CC1(CO1)C1C(OC(C)=O)C=C(C)C21O (centres undefined) | 0.76
CC(=O)C(C)CN1CCCCC1 (centres undefined) | 1.28
O=C1C=CC(=O)C(c2ccccc2)=C1 | 1.95
CCOC(=O)Cn1nnc2ccccc21 | 1.3
CCCCCc1cc(OC)c2c(c1)OC(C)(C)C1CC=C(C)CC21 (centres undefined) | 8.06
CC(C)Oc1ccc(C(=O)c2ccc3n2CCC3C(=O)O)cc1 (centres undefined) | 3.38
CCN1CCCCC1 | 1.75
CCCCc1cc(OC)c(CC(C)N)cc1OC (centres undefined) | 4
CNC1CC2CC1c1ccccc12 (centres undefined) | 2.32
COC(=O)Nc1ccc(Cl)c(Cl)c1 | 3.32
CC(N)CC1CCCCC1 (centres undefined) | 2.96
C=C1C(=O)O[C@H]2[C@H]1[C@H](OC(=O)/C(C)=C\C)CC(=C)[C@@H]1[C@H](O)[C@H]3O[C@@]3(C)[C@@]12O | 1.69
Fc1ccc(F)c(F)c1 | 2.52
OC1c2ccccc2C2CCCCC2C1O (centres undefined) | 2.47
CC(=O)c1cccc(Nc2ccccc2C(=O)O)c1 | 4.07
O=C(O)/C=C/Oc1ccc(Cl)cc1Cl | 3.46
CCC(N)C(=O)Nc1c(C)cccc1C (centres undefined) | 0.84
Cc1cnc2n(c1=O)CCCC2C (centres undefined) | 0.69
COCOC(=O)C1N2C(=O)C(N3C(=O)C(c4ccc(O)cc4)NC3(C)C)C2SC1(C)C (centres undefined) | 0.3
COCCc1cnc(-c2ccc(OCC(O)CNCCc3ccc(OC)c(OC)c3)cc2)[nH]1 (centres undefined) | 2.06
CCN1CC(C(O)C(CC2CCCCC2)NC(=O)C(Cc2c[nH]cn2)NC(=O)C(Cc2ccc(OC)cc2)NC(=O)N2CC(OCOCCOC)C(OCOCCOC)C2)OC1=O (centres undefined) | 1.67

SMILES | logP
C=C(C)C(=O)OCCCOC(=O)C(=C)C | 1.86
C=CC(=O)OCCOCCOCCOC(=O)C=C | 0.96
Cc1ccc(S(=O)(=O)NC(=O)NN2CCCC2)cc1 | 0.65
OCc1ccccc1C(c1ccc(O)cc1)c1ccc(O)cc1 | 3.27
CCNc1nc(Cl)nc(NC2CC2)n1 | 2.17
CCN(CC)CCOC(=O)/C=C/c1ccccc1 | 3.61
Cc1ncc(NS(=O)(=O)c2ccc(N)cc2)c(C)n1 | 0.59
c1ccc(-c2cc3ccccc3cn2)nc1 | 3.05
C[C@H]1O[C@@H](O[C@H]2[C@@H](O)C[C@H](O[C@H]3[C@@H](O)C[C@H](O[C@H]4CC[C@@]5(C)[C@H](CC[C@@H]6[C@@H]5CC[C@]5(C)[C@@H](C7=CC(=O)OC7)CC[C@]65O)C4)O[C@@H]3C)O[C@@H]2C)C[C@H](O)[C@@H]1O | 1.85
O=c1[nH]nc(-c2ccccc2)c2ccccc12 | 2.48
c1cc2cccc3c4cccc5cccc(c(c1)c23)c54 | 6.25
CC(C)C(=O)O | 0.94
O=C(Cn1ccnc1[N+](=O)[O-])NC(CO)(CO)CO | -1.77
C1CC2OC2CC1C1CO1 (centres undefined) | 0.44
Cc1cccc(C)c1NC(=O)C(C)N(C)C (centres undefined) | 1.53
c1ccc(-c2nc3ccccc3o2)cc1 | 3.67
OC(Cn1ccnc1)(c1ccc(F)cc1)c1ccc(-c2ccccc2)cc1 (centres undefined) | 4.23
Oc1ccc2[nH]ccc2c1 | 1.11
CNC(=O)Oc1ccc(N(C)C)c(C)c1 | 1.9
CC(C)NC(=O)COc1ccc(OCCNCC(O)COc2ccccc2)cc1 (centres undefined) | 2.4
CC(=Cc1ccccc1)C(=O)O | 2.6
C=C1C(=O)OC2CC3(C)CCCC(C)C3=CC12 (centres undefined) | 3.38
Nc1ccn([C@H]2C=C[C@@H](CO)O2)c(=O)n1 | -1.55

SMILES | logP
O=C(O)CCn1ccc2ccccc21 | 2.2
Cc1ccc(Cl)c(N=C2NCCN2)c1 | 1.83
CCCCCCCCCCCC(=O)C(C)(C)C(=O)N(C)c1c(OC)cc(OC)cc1OC | 6.67
CC(C)c1cc(C(C)C)cc(C2C(=O)c3ccccc3C2=O)c1 | 5.96
O=C(O)c1cc(-c2ccc(F)cc2F)ccc1O | 4.44
OCc1cc(Cl)cc(Cl)c1O | 2.3
COc1ccc(CCNCC(O)COc2ccc(-c3ncc(C)[nH]3)cc2OC)cc1OC (centres undefined) | 1.89
CCCCCCCC(C)(C)c1ccc(C2CCCC(O)C2)c(O)c1 (centres undefined) | 7.18
CCNC(=O)NS(=O)(=O)c1ccc(C)cc1 | 1.14
CCC(=O)Oc1c(OC)c(OC)c(OC(=O)CC)c2ccccc12 | 3.44
CCNC(C)Cc1cccc(C(F)(F)F)c1 (centres undefined) | 3.36
C#CC1(O)C(F)CC2C3CCc4cc(O)ccc4C3C(CC)CC21C (centres undefined) | 4.12
CCCCNC(=O)n1cc(F)c(=O)[nH]c1=O | 1.44
O=C(Cn1ccnc1[N+](=O)[O-])NCc1ccccc1 | 0.91
Clc1ccc(-c2ccccc2)c(Cl)c1 | 5.16
CC(C)Nc1nc(Cl)nc(NC2CC2)n1 | 3.06
Brc1cc2ccccc2nn1 | 1.72
CNCCCN1c2ccccc2Sc2ccc(Cl)cc21 | 4.94
O=C1C2C3C=CC(C3)C2C(=O)N1CCCCN1CCN(c2ncccn2)CC1 (centres undefined) | 1.36
CCOc1ccc(Cc2cnc(N)nc2N)cc1OCC | 1.72
Cc1ccc(C(=O)c2ccc(CC(=O)O)n2C)cc1 | 2.79
O=C1Nc2ccccc2CC1c1ccccc1 (centres undefined) | 2.93
CC(=O)c1ccc(C(O)(Cn2ccnc2)c2ccc(-c3ccncc3)cc2)cc1 (centres undefined) | 2.41

SMILES | logP
COc1ccc(C(O)(Cn2ccnc2)c2ccc(Br)cc2)cc1 (centres undefined) | 4.02
O=C(c1c(F)cccc1F)c1ccc2n1CCC2C(=O)O (centres undefined) | 2.47
O=[N+]([O-])c1cnc(C=Cc2ccc3c(c2)OCO3)n1CCO | 2.03
Cc1cc(=O)n2c(n1)CCCC2C (centres undefined) | 0.67
CSc1cnc2ccccc2n1 | 2.79
OC(Cn1ccnc1)(c1ccc(-c2ccccn2)cc1)c1ccc(F)cc1F (centres undefined) | 3.65
CCCCCCCCCCCCCc1cccc(O)c1 | 8.84
C=CCC(NC(=O)C(Cc1ccccc1)NS(=O)(=O)N1CCN(C)CC1)C(=O)NC(CC1CCCCC1)C(=O)C(F)(F)C(=O)NCCN1CCOCC1 (centres undefined) | 2.73
OC1(c2ccc(Cl)cc2)CCCCCC1n1cncn1 (centres undefined) | 3.54
COc1cc(Cc2cnc(N)nc2N)ccc1N(C)C | 1.87
CC1CC(C)(C)CC(c2ccccc2)(N2CCCCC2)C1 (centres undefined) | 6.35
c1ccc(-c2ncc3ccccc3n2)cc1 | 3.42
CNC(=C[N+](=O)[O-])NCCSCc1ccc(CN(C)C)o1 | 0.27
CC(C)c1ccc(S(N)(=O)=O)cc1 | 1.84
O=C1c2ccccc2C(=O)C1c1cccc(C(F)(F)F)c1 | 3.78
O=c1[nH]c(-c2ccccc2)nc2nn[nH]c12 | 1.27
CC1(C)C(C=C2CCSC2=O)C1C(=O)OCc1ccccc1 (centres undefined) | 4.02
Cc1cc(C)cc(C2C(=O)c3ccccc3C2=O)c1 | 4.02
CC(C)C(Nc1ccccc1)C(=O)OCc1ccccc1 (centres undefined) | 4.41
CCNC(=O)c1cc(Cl)cc(C)c1O | 3.55
COC1CC(OC2CCC3(C)C(CCC4C3CCC3(C)C(C5=CC(=O)OC5)C(O)CC43O)C2)OC(C)C1O (centres undefined) | 0.59
COC(=O)C1C(C=C2CCSC2=O)C1(C)C (centres undefined) | 2.33
CC(O)c1ccc2ccccc2c1 (centres undefined) | 2.68

SMILES | logP
CCCCCCCCCC[N+](C)(C)C.[I-] | -0.16
CCCOc1cc(Br)c(Cc2cnc(N)nc2N)cc1OC | 2.84
N#CSO | 0.32
O=c1nc(-c2ccccc2)c2ccccc2[nH]1 | 1.91
Cc1ccc(S(=O)(=O)NC(=O)NN2CCCCC2)cc1 | 1.34
CN(C)c1ccc2ccccc2n1 | 2.81
CCCCCCCCCCC(C)(C)c1ccc(C2CCCC(O)C2)c(O)c1 (centres undefined) | 8.42
O=C1NC(=O)c2cc(-c3ccccc3)ccc21 | 2.97
COC(=O)c1ccc(N)cc1 | 1.37
CC(=O)OCCN1C(=O)C(OC(C)=O)N=C(c2ccccc2)c2cc(Cl)ccc21 (centres undefined) | 2.74
CC(C)(C)c1cc(C2C(=O)c3ccccc3C2=O)cc(C(C)(C)C)c1 | 6.86
CCc1ccc(CC(=O)O)cc1 | 2.25
CCC(C(=O)NC(N)=O)(C(=O)OC)c1ccccc1 (centres undefined) | 1.58
COCc1ccc(C#N)cc1 | 1.23
[N-]=[N+]=N[C@H]1C[C@H](n2ccc(N)nc2=O)O[C@@H]1CO | -0.7
CCC(=O)OCOC(=O)c1cc(S(N)(=O)=O)c(Cl)cc1NCc1ccco1 | 2.9
CCOC(=O)C1=C(C)OC(=Cc2ccc(OC)cc2)C1=O | 2.96
COc1cccc(/C=C/C(=O)O)c1 | 2.37
CC(C(=O)NCCO)n1ccnc1[N+](=O)[O-] (centres undefined) | -1.16

— the OPERA property sets (Mansouri et al. 2018)
